Measurements taken from patent US12084431B2, “Pharmaceutical salts of pyrimidine derivatives and method of treating disorders” (ARIAD Pharmaceuticals, Inc., priority 2018, dated 2024).

Experiments:
[1] = Vapour sorption analysis (GVS, hygroscopicity); assay type: physicochemical; details: % uptake at 90% RH
Procedure: Approximately 10 mg of the sample was placed into a mesh vapor sorption balance pan and loaded into an IGASorp Moisture Sorption Analyzer balance by Hiden Analytical. The sample was subjected to a ramping profile from 40 to 90% relative humidity (RH) at 10% increments to 90% RH, maintaining the sample at each step until a stable weight had been achieved (98% step completion). After completion of the sorption cycle, the sample was dried using the same procedure (initially from 90% RH to 0% RH and finally taken back to the starting point of 40% RH). The sorption/desorption profiles were then repeated to give a double-cycle plot. The weight changes during the sorption/desorption cycles were plotted, allowing for the hygroscopic nature of the sample to be determined.

[2] = Stability stress testing (ambient light, 40° C./75% RH, 80° C., 7 days; XRPD and HPLC purity); assay type: physicochemical; details: for XRPD after storage: 7 days; for Purity, 40° C./75% RH / Purity, 80° C. / Purity, Ambient light: HPLC purity after 7 days, open vial; for Purity, Ambient light: room temperature; for Input purity: HPLC purity before stress storage; for Chemical Stability: summary in Table 17
Procedure: Approximately 5 mg of the appropriate samples were placed into 2 mL clear glass vials and the vials were all stored open under the conditions of ambient light, 40° C./75% RH, and 80° C. for 7 days, respectively. The ambient light sample was left open on the bench at room temperature. The 80° C. sample was placed open into an 80° C. oven.

[3] = Thermodynamic aqueous solubility studies (de-ionized water, 24 h, HPLC concentration, filtrate pH, XRPD of solid); details: for solubility at 24 h: de-ionized water, pH 6.97, water, thermodynamic from solid; for pH at Saturation: pH of filtrate after 24 h slurry in de-ionized water (pH 6.97), ambient temperature
Procedure: The resulting solid material was isolated by centrifugation and analyzed by XRPD, while the filtrate was analyzed by HPLC for concentration determination. The pH of the resulting filtrate was also determined.

[4] = all storage conditions (ambient light, 40° C./75% RH, 80° C.)
[5] = Solubility in Water, de-ionized water (pH 6.97), slurry shaken at ambient temperature for 24 h, filtrate by HPLC, salts of Compound (A)
[6] = other 2 conditions (40° C./75% RH and 80° C.)

## C=CC(=O)Nc1cc(Nc2ncc(C(=O)OC(C)C)c(-c3cn(C)c4ccccc34)n2)c(OC)cc1N(C)CCN(C)C.O=C(O)/C=C/C(=O)O [Fumarate, isopropyl 2-((5-acrylamido-4-((2-(dimethylamino)ethyl) (methyl)amino)-2-methoxyphenyl)amino)-4-(1-methyl-1H-indol-3-yl)pyrimidine-5-carboxylate fumarate]
[1]
  GVS (Hygroscopicity): 2.0%
[2]; [4]
  XRPD after storage: No change under all storage
[2]
  Purity, 40° C./75% RH: 99.5
  Purity, 80° C.: 99.5
  Input purity: 99.7
  Chemical Stability: Stable
[2]; ambient light
  Purity, Ambient light: 99.5
[3]; [5]
  solubility at 24 h: 100 µg/mL
[3]
  pH at Saturation: 3.98

## C=CC(=O)Nc1cc(Nc2ncc(C(=O)OC(C)C)c(-c3cn(C)c4ccccc34)n2)c(OC)cc1N(C)CCN(C)C.CS(=O)(=O)O [Mesylate, isopropyl 2-((5-acrylamido-4-((2-(dimethylamino)ethyl) (methyl)amino)-2-methoxyphenyl)amino)-4-(1-methyl-1H-indol-3-yl)pyrimidine-5-carboxylate mesylate]
[1]
  GVS (Hygroscopicity): Drying Form
[2]; ambient light
  XRPD after storage: No change at ambient light;
  Purity, Ambient light: 99.6
[2]
  Purity, 40° C./75% RH: 99.6
  Purity, 80° C.: 99.6
  Input purity: 99.7
  Chemical Stability: Stable
[3]; [5]
  solubility at 24 h: > 70000 µg/mL
[3]
  pH at Saturation: 2.90

## Br.C=CC(=O)Nc1cc(Nc2ncc(C(=O)OC(C)C)c(-c3cn(C)c4ccccc34)n2)c(OC)cc1N(C)CCN(C)C [HBr, isopropyl 2-((5-acrylamido-4-((2-(dimethylamino)ethyl) (methyl)amino)-2-methoxyphenyl)amino)-4-(1-methyl-1H-indol-3-yl)pyrimidine-5-carboxylate hydrobromide]
[1]
  GVS (Hygroscopicity): 0.6%
[2]; [4]
  XRPD after storage: No change under all storage
[2]
  Purity, 40° C./75% RH: 99.6
  Purity, 80° C.: 99.5
  Input purity: 99.7
  Chemical Stability: Stable
[2]; ambient light
  Purity, Ambient light: 99.6
[3]; [5]
  solubility at 24 h: 100 µg/mL
[3]
  pH at Saturation: 6.30

## C=CC(=O)Nc1cc(Nc2ncc(C(=O)OC(C)C)c(-c3cn(C)c4ccccc34)n2)c(OC)cc1N(C)CCN(C)C.Cl [HCl, isopropyl 2-((5-acrylamido-4-((2-(dimethylamino)ethyl) (methyl)amino)-2-methoxyphenyl)amino)-4-(1-methyl-1H-indol-3-yl)pyrimidine-5-carboxylate hydrochloride]
[1]
  GVS (Hygroscopicity): 10.%
[2]; ambient light
  XRPD after storage: No change at ambient light;
  Purity, Ambient light: 95.1
[2]; [6]
  XRPD after storage: changes observed in other 2
[2]
  Purity, 40° C./75% RH: 74.5
  Purity, 80° C.: 91.3
  Input purity: 99.0
  Chemical Stability: Degradation
[3]; [5]
  solubility at 24 h: 5800 µg/mL
[3]
  pH at Saturation: 6.47

## C=CC(=O)Nc1cc(Nc2ncc(C(=O)OC(C)C)c(-c3cn(C)c4ccccc34)n2)c(OC)cc1N(C)CCN(C)C [Free Base, isopropyl 2-((5-acrylamido-4-((2-(dimethylamino)ethyl) (methyl)amino)-2-methoxyphenyl)amino)-4-(1-methyl-1H-indol-3-yl)pyrimidine-5-carboxylate]
[1]
  GVS (Hygroscopicity): 0.3%
[2]
  Purity, 40° C./75% RH: 99.5
  Purity, 80° C.: 99.5
[2]; ambient light
  Purity, Ambient light: 99.5
[3]
  solubility at 24 h: < 10 µg/mL
  pH at Saturation: 7.81

## C=CC(=O)Nc1cc(Nc2ncc(C(=O)OC(C)C)c(-c3cn(C)c4ccccc34)n2)c(OC)cc1N(C)CCN(C)C.O=S(=O)(O)O [Sulfate, isopropyl 2-((5-acrylamido-4-((2-(dimethylamino)ethyl) (methyl)amino)-2-methoxyphenyl)amino)-4-(1-methyl-1H-indol-3-yl)pyrimidine-5-carboxylate sulfate]
[1]
  GVS (Hygroscopicity): 11%
[2]; ambient light
  XRPD after storage: No change at ambient light;
  Purity, Ambient light: 98.6
[2]
  Purity, 40° C./75% RH: 96.2
  Purity, 80° C.: 94.9
  Input purity: 98.3
  Chemical Stability: Degradation
[3]
  solubility at 24 h: > 240000 µg/mL
  pH at Saturation: 2.19

## isopropyl 2-((5-acrylamido-4-((2-(dimethylamino)ethyl) (methyl)amino)-2-methoxyphenyl)amino)-4-(1-methyl-1H-indol-3-yl)pyrimidine-5-carboxylate hippurate
[1]
  GVS (Hygroscopicity): 0.2%
[2]; [4]
  XRPD after storage: No change under all storage
[2]
  Purity, 80° C.: 99.6
  Input purity: 99.7
  Chemical Stability: Stable
[2]; ambient light
  Purity, Ambient light: 99.6

## C=CC(=O)Nc1cc(Nc2ncc(C(=O)OC(C)C)c(-c3cn(C)c4ccccc34)n2)c(OC)cc1N(C)CCN(C)C.O=C(O)C(=O)O [Oxalate, isopropyl 2-((5-acrylamido-4-((2-(dimethylamino)ethyl) (methyl)amino)-2-methoxyphenyl)amino)-4-(1-methyl-1H-indol-3-yl)pyrimidine-5-carboxylate oxalate]
[1]
  GVS (Hygroscopicity): 2.0%
[2]; ambient light
  XRPD after storage: No change at ambient light;
  Purity, Ambient light: 99.6
[2]; [6]
  XRPD after storage: minor changes observed in
[2]
  Purity, 40° C./75% RH: 99.6
  Purity, 80° C.: 99.6
  Input purity: 99.7
  Chemical Stability: Stable
[3]; [5]
  solubility at 24 h: 6800 µg/mL
[3]
  pH at Saturation: 3.00
